Test results: US8541585B2, “N-acyl cyclic amine derivative or pharmaceutically acceptable salt thereof” (Dainippon Sumitomo Pharma Co., Ltd., priority 2010, dated 2013)

Key:
[1] = target: human D2L receptor (Homo sapiens, UniProt P14416); experiment: Dopamine D2L receptor binding assay ([3H]-spiperone); details: 10 nM test drug, [3H]-spiperone 0.5 nM, human D2L receptor-expressing CHO cell membrane; for inhibition at 0.01 µM: read-out: BINDING INHIBITION RATE (%) D2L 10 nM
Experimental: (1) Dopamine D2L Receptor Binding Assay
D2L receptor binding assay was performed in reference to a method described by Hirose et al. (Japan. J. Pharmacol., 53, 321-329, 1990). After a reaction in a total volume of 200 μL of 50 mM Tris-HCl (pH=7.6) buffer solution containing 50 μL of [^3H]-spiperone (final concentration 0.5 nM), 1 μL of test drug in DMSO, and 149 μL of human D2L receptor-expressing CHO cell membrane sample, human D2L receptor binding activity of [^3H]-spiperone was measured. The reaction solution let stand for 60 minutes at room temperature, and then it was quickly added on a glass fiber filter plate (Multiscreen FB, Millipore inc.) coated with 0.3% polyethyleneimine (PEI) and filtered under reduced pressure. The glass fiber filter was washed with 200 μL of ice-cooled 50 mM Tris-HCl (pH=7.6) twice, repeatedly filtered under reduced pressure, and then transferred to a vial containing 4 mL of Ecoscint A (National Diagnostics inc.). The residual radioactivity on the glass fiber filter was measured by a liquid scintillation counter. Nonspecific binding was measured in the presence of 10 μM of spiperone, and [^3H]-spiperone binding inhibition rate in the presence of 10 nM of test drug was determined. The larger binding inhibition rate (%) means that test drug has the higher binding affinity for human D2L receptor.

[2] = target: T1, human 5-HT2A receptor (Homo sapiens, UniProt P28223); experiment: Serotonin 5-HT2A receptor binding assay ([3H]-ketanserin); details: [3H]-ketanserin 1 nM, human 5-HT2A receptor-expressing CHO cell membrane; for inhibition at 0.01 µM: 10 nM test drug, read-out: BINDING INHIBITION RATE (%) 5HT2A 10 nM
T1 construct: expressed in transfected cells; host or cells: CHO cells (membrane preparation)
T1 sequence (P28223 whole entry): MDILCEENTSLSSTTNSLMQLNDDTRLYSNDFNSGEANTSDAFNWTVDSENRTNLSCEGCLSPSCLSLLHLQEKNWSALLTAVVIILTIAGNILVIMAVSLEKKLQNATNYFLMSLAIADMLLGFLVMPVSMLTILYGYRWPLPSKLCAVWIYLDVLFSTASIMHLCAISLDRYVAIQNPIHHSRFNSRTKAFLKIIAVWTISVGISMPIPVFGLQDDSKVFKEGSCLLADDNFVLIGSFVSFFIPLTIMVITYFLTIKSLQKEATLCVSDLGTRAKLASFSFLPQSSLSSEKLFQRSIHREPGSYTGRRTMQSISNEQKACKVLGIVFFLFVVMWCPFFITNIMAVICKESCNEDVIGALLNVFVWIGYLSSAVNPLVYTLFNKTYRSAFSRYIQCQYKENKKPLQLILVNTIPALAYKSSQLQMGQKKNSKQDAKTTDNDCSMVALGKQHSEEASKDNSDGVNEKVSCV
Experimental: (2) Serotonin 5-HT2A Receptor Binding Assay
5-HT2A receptor binding assay was performed in reference to a method described by Hirose et al. (Japan. J. Pharmacol., 53, 321-329, 1990). After a reaction in a total volume of 200 μL of 50 mM Tris-HCl (pH=7.6) buffer solution containing 50 μL of [^3H]-ketanserin (final concentration 1 nM), 1 μL of test drug in DMSO, and 149 μL of human 5-HT2A receptor-expressing CHO cell membrane sample, human 5-HT2A receptor binding activity of [^3H]-ketanserin was measured. The reaction solution let stand for 15 minutes at 37° C., and then it was quickly added on a glass fiber filter plate (Multiscreen FB, Millipore inc.) coated with 0.05% Brij 35 and filtered under reduced pressure. The glass fiber filter was washed with 200 μL of ice-cooled 50 mM Tris-HCl (pH=7.6) twice, repeatedly filtered under reduced pressure, and then transferred to a vial containing 4 mL of Ecoscint A (National Diagnostics inc.). The residual radioactivity on the glass fiber filter was measured by a liquid scintillation counter. Nonspecific binding was measured in the presence of 10 μM of MDL-100907, and [^3H]-ketanserin binding inhibition rate in the presence of 1 nM or 10 nM of test drug was determined.

[3] = target: T2, human 5-HT6 receptor (Homo sapiens, UniProt P50406); experiment: Serotonin 5-HT6 receptor binding assay ([3H]-clozapine); details: 100 nM test drug, [3H]-clozapine 2 nM, human 5-HT6 receptor-expressing CHO cell membrane; for inhibition at 0.1 µM: read-out: BINDING INHIBITION RATE (%) 5HT6 100 nM
T2 construct: expressed in transfected cells; host or cells: CHO cells (membrane preparation)
T2 sequence (P50406 whole entry): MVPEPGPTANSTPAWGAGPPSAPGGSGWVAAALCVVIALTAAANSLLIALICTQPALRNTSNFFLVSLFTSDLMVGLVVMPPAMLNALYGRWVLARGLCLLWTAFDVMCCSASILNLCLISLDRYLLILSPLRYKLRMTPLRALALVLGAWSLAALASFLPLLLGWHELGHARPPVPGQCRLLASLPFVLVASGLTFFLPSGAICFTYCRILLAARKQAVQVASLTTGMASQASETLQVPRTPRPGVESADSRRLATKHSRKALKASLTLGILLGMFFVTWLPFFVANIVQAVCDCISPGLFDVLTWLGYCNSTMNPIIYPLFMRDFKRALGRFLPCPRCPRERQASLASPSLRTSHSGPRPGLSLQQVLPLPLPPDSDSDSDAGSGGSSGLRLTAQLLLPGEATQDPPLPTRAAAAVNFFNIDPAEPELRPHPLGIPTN
Experimental: (3) Serotonin 5-HT6 Receptor Binding Assay
After a reaction in a total volume of 200 μL of 50 mM Tris-HCl (pH=7.6), 4 mM CaCl2, and 0.5 mM EDTA buffer solution containing 50 μL of [^3H]-clozapine (final concentration 2 nM), 1 μL of test drug in DMSO, and 149 μL of human 5-HT6 receptor-expressing CHO cell membrane sample, human 5-HT6 receptor binding activity of [^3H]-clozapine was measured. The reaction solution let stand for 40 minutes at room temperature, and then it was quickly added on a glass fiber filter plate (Multiscreen FB, Millipore inc.) coated with 0.3% polyethyleneimine (PEI) and filtered under reduced pressure. The glass fiber filter was washed with 200 μL of ice-cooled 50 mM Tris-HCl (pH=7.6) twice, repeatedly filtered under reduced pressure, and then transferred to a vial containing 4 mL of Ecoscint A (National Diagnostics inc.). The residual radioactivity on the glass fiber filter was measured by a liquid scintillation counter. Nonspecific binding was measured in the presence of 10 μM of SB-258585, and [^3H]-clozapine binding inhibition rate in the presence of 100 nM of test drug was determined.

[4] = target: T3, human α1D receptor (Homo sapiens, UniProt P25100); experiment: Adrenaline α1D receptor binding assay ([3H]-prazosin); details: 100 nM test drug, [3H]-prazosin 0.6 nM, human α1D receptor-expressing CHO cell membrane; for inhibition at 0.1 µM: read-out: BINDING INHIBITION RATE (%) α1D 100 nM
T3 construct: expressed in transfected cells; host or cells: CHO cells (membrane preparation)
T3 sequence (P25100 1-572): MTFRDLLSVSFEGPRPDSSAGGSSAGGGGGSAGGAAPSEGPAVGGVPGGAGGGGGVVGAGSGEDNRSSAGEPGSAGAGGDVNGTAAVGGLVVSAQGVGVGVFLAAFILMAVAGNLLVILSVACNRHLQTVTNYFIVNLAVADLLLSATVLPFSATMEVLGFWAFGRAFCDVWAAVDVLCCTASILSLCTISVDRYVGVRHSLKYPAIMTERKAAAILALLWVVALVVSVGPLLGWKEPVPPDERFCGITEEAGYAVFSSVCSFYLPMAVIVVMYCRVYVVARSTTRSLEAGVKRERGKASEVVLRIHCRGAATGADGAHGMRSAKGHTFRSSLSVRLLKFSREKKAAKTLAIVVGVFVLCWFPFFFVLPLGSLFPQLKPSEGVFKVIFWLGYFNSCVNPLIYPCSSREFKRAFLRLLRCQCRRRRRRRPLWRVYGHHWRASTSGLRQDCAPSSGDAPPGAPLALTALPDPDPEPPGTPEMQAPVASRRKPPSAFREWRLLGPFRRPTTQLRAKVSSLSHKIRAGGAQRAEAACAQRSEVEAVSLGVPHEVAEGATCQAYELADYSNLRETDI
Experimental: (4) Adrenaline α1D Receptor Binding Assay
After a reaction in a total volume of 200 μL of 50 mM Tris-HCl (pH=7.6) buffer solution containing 50 μL of [^3H]-prazosin (final concentration 0.6 nM), 1 μL of test drug in DMSO, and 149 μL of human α1D receptor-expressing CHO cell membrane sample, human α1D receptor binding activity of [^3H]-prazosin was measured. The reaction solution let stand for 30 minutes at room temperature, and then it was quickly added on a glass fiber filter plate (Multiscreen FB, Millipore inc.) coated with 0.3% polyethyleneimine (PEI) and filtered under reduced pressure. The glass fiber filter was washed with 200 μL of ice-cooled 50 mM Tris-HCl (pH=7.6) twice, repeatedly filtered under reduced pressure, and then transferred to a vial containing 4 mL of Ecoscint A (National Diagnostics inc.). The residual radioactivity on the glass fiber filter was measured by a liquid scintillation counter. Nonspecific binding was measured in the presence of 1 μM of prazosin, and [^3H]-prazosin binding inhibition rate in the presence of 100 nM of test drug was determined.

Chain of human D2L receptor (P14416 whole entry): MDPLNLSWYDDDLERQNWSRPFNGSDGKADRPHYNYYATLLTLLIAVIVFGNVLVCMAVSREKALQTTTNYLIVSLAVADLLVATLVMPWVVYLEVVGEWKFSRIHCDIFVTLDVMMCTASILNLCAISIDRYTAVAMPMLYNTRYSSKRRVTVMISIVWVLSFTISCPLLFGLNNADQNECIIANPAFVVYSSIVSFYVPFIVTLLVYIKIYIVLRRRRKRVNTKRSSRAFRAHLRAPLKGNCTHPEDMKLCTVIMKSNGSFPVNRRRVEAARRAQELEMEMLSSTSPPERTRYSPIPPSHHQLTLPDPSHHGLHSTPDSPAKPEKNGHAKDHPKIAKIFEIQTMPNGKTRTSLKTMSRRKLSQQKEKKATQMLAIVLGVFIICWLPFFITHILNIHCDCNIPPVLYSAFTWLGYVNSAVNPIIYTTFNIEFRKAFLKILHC

Row | Molecule | inhibition at 0.01 µM [1] [%] | inhibition at 0.001 µM ([2]; 1 nM test drug, read-out: BINDING INHIBITION RATE (%) 5HT2A 1 nM) [%] | inhibition at 0.1 µM [3] [%] | inhibition at 0.1 µM [4] [%] | inhibition at 0.01 µM [2] [%] | BINDING INHIBITION RATE (%) D2L 10 nM [1] [%] | BINDING INHIBITION RATE (%) 5HT6 100 nM [3] [%] | BINDING INHIBITION RATE (%) α1D 100 nM [4] [%]
1 | Cc1ccc2cc(C(=O)N3CCC[C@H]3CCN3CCC(C(=O)c4ccc(F)cc4)CC3)[nH]c2c1 [Example 1, (S)-(2-(2-(4-(4-Fluorobenzoyl)piperidin-1-yl)ethyl)pyrrolidin-1-yl)(6-methyl-1H-indol-2-yl)methanone] | 91 | 73 | 96 | 68 | – | – | – | –
2 | O=C(/C=C/c1ccc2c(c1)OCO2)N1CCC[C@H](CCN2CCC(c3noc4cc(F)ccc34)CC2)C1 [Example 14] | 75 | – | 92 | 89 | – | – | – | –
3 | O=C(c1cc2ccc(F)cc2[nH]1)N1CCC[C@H](CN2CCN(c3n[nH]c4ccccc34)CC2)C1 [Example 22] | 26 | – | 85 | – | – | – | – | –
4 | Cc1ccc2cc(C(=O)N3CCC[C@H]3CCN3CCN(c4n[nH]c5cc(F)ccc45)CC3)[nH]c2c1 [Example 24] | 88 | – | 98 | 64 | – | – | – | –
5 | Cc1ccc2cc(C(=O)N3CCC[C@H]3CCN3CCN(c4n[nH]c5ccc(F)cc45)CC3)[nH]c2c1 [Example 25] | 28 | – | 82 | – | – | – | – | –
6 | COc1ccc2[nH]c(C(=O)N3CCCC[C@H]3CCN3CCC(c4coc5cc(F)ccc45)CC3)cc2c1 [Example 30] | 92 | – | 65 | – | 95 | – | – | –
7 | CCOCCO[C@@H]1C[C@@H](CCN2CCC(c3c[nH]c4ccccc34)CC2)N(C(=O)c2cc3ccc(OC)cc3[nH]2)C1 [Example 37] | 0 | – | 78 | – | 91 | – | – | –
8 | O=C(c1cc2cc(O)ccc2[nH]1)N1CCOC[C@H]1CCN1CCC(c2c[nH]c3ccccc23)CC1 [Example 41] | 85 | – | 78 | 81 | – | – | – | –
9 | O=C(c1ccc(F)cc1)C1CCN(CC[C@@H]2CCCN2C(=O)c2[nH]c3ccccc3c2-c2ccccc2)CC1 [Example 47] | 72 | – | 94 | 85 | – | – | – | –
10 | O=C(c1ccc(F)cc1)C1CCN(CC[C@@H]2CCCN2C(=O)c2cc3ccccc3n2C2CCOCC2)CC1 [Example 48] | 82 | – | 97 | 40 | – | – | – | –
11 | O=C(c1ccc(F)cc1)C1CCN(CC[C@@H]2CCCN2C(=O)c2cc3ccccc3n2-c2ccncc2)CC1 [Example 49] | 83 | – | 75 | 30 | – | – | – | –
12 | Cc1ccc2cc(C(=O)N3C[C@H](F)C[C@H]3CCN3CCC(C(=O)c4ccc(F)cc4)CC3)[nH]c2c1 [Example 53] | 89 | – | 94 | 48 | – | – | – | –
13 | N#CCCc1ccc2c(Cl)c(C(=O)N3CCC[C@H]3CCN3CCC(C(=O)c4ccc(F)cc4)CC3)[nH]c2c1 [Example 55] | 83 | – | 100 | – | – | – | – | –
14 | O=C(c1cccc(-c2ccccc2)c1)N1CCC[C@@H](CCN2CCN(c3nsc4ccccc34)CC2)C1 [Example 57] | 69 | – | 86 | 76 | – | – | – | –
15 | CC(=O)Nc1cccc2cc(C(=O)N3CCC[C@H]3CCN3CCC(C(=O)c4ccc(F)cc4)CC3)n(C)c12 [Example 63] | 0 | – | 17 | – | – | – | – | –
16 | Cc1ccc2cc(C(=O)N3[C@H](CCN4CCC(C(=O)c5ccc(F)cc5)CC4)CC[C@@H]3C)[nH]c2c1 [Example 166, ((2S,5S)-2-(2-(4-(4-Fluorobenzoyl)piperidin-1-yl)ethyl)-5-methylpyrrolidin-1-yl)(6-methyl-1H-indol-2-yl)methanone] | 88 | – | 97 | 62 | – | – | – | –
17 | C[C@H]1CC[C@@H](CCN2CCC(C(=O)c3ccc(F)cc3)CC2)N1C(=O)c1cc2ccc(C(F)(F)F)cc2[nH]1 [Example 167, ((2S,5S)-2-(2-(4-(4-Fluorobenzoyl)piperidin-1-yl)ethyl)-5-methylpyrrolidin-1-yl)(6-(trifluoromethyl)-1H-indol-2-yl)methanone] | 75 | – | 95 | 33 | – | – | – | –
18 | C[C@H]1CC[C@@H](CCN2CCC(C(=O)c3ccc(F)cc3)CC2)N1C(=O)c1cc2ccc(SC(F)(F)F)cc2[nH]1 [Example 168, ((2S,5S)-2-(2-(4-(4-Fluorobenzoyl)piperidin-1-yl)ethyl)-5-methylpyrrolidin-1-yl)(6-(trifluoromethylthio)-1H-indol-2-yl)methanone] | 81 | – | 94 | 61 | – | – | – | –
19 | (S)-(2-(2-(4-(6-Fluorobenzo[d]isoxazol-3-yl)piperidin-1-yl)ethyl)pyrrolidin-1-yl)(3-phenyl-1H-pyrazol-5-yl)methanone hydrochloride [Example 170] | – | – | – | – | – | 87 | 95 | 83
